Data taken from patent publication US8669253B2, “Methods for treating glaucoma and macular degeneration” (Duke University, priority 2006, dated 2014).
pIC50, pKi: −log10 of the molar value. Values joined by “and” are separate entries in the source; they are usually repeats but may differ in a detail not shown here. Equal values may be shown once. “Also recorded” adds a separate entry of the source.

Columns and labels:
[1] = test system: GFP-Ras-CVLL in MDCK cells; experiment: Localization of GFP-Ras-CVLL in MDCK cells; assay type: cell-based; conditions: for localization of Ras-CVLL: 20 μM, 24 h
Description: (§1) MDCK cells stably expressing GFP-H-Ras were a gift from Mark Philips (New York University School of Medicine). Ras-CVLL was cloned into pEGFP (Clontech) and used to transfect MDCK cells. Stable clones were then selected using […] Geneticin and expression confirmed by analysis of GFP expression as visualized by fluorescence microscopy. MDCK cells were always cultured as a monolayer in DMEM with 10% FBS. For drug treatment experiments, cells were plated onto glass-bottom microwell dishes (MatTek Corp, Ashland, Mass.) and experiments initiated approximately 24 h after cells reached confluence. All compounds tested were dissolved in DMSO and added to cells at a final DMSO concentration of 0.02%.
(§2) Assessment of receptor independent cell rounding was accomplished using adenovirus expressing the activated mutant of Gα12, Gα12QL (31). MDA-MB-231 cells were plated onto glass-bottom microwell dishes at 60% confluence and grown for 18-24 h in the presence of serum. Cells were then washed once with PBS and media replaced with serum-free media (DMEM) including any indicated compounds and incubated 6 h before addition of recombinant adenovirus. Following an additional 12 h incubation, cells were imaged using brightfield and GFP fluorescence microscopy. Cell images were acquired using an Eclipse TE300 microscope (Nikon) using either an oil immersion lens at 600× (for fluorescence of MDCK cells) or a plan fluor lens at 200× (for MBA-321 cells) and a SPOT digital camera (Diagnostic Instruments, Sterling Heights, Mich.) employing SPOT RT 3.02 software.

[2] = test system: GFP-H-Ras in MDCK cells; experiment: Localization of GFP-H-Ras in MDCK cells; assay type: cell-based; conditions: 20 μM, 24 h
Description: as §1
as §2, with “Cells were then washed once with PBS and media replaced with serum-free media (DMEM) including any indicated compounds and incubated 6 h before addition of recombinant adenovirus.” left out

[3] = test system: Rap1 prenylation in MDA-MB-231 cells; experiment: Unprenylated Rap1 analysis (immunoblot); assay type: cell-based; conditions: 24 h
Description: To measure levels of unprenylated Rap1 in cells, whole cell lysates of MDA-MB-231 cells (prepared identically to Gβγ partitioning above, 75 ug) were mixed with Laemmli loading buffer and boiled. Samples were then separated by electrophoresis on denaturing 4-20% polyacrylamide gels and proteins transferred to nitrocellulose membranes for immunoblotting with antisera specific for the unprenylated form of Rap1 (Santa Cruz, sc-1482, goat). Sample loading was verified by reprobing blots with antisera for total Rap1 (Santa Cruz, sc-65, rabbit).

[4] = test system: Rho association with RhoGDI in MDA-MB-231 cells; experiment: RhoGDI-Rho interaction assay (GST-RhoGDI pull-down); assay type: cell-based; conditions: 24 h, GGTI-DU40 5 μM, FTI 20 μM
Description: The interaction of GST-RhoGDI with endogenous Rho was assessed by protein interaction experiments. RhoGDI was generated as a glutathione-S-transferase fusion protein using a construct provided by Gary Bokoch (Scripps). The GST-RhoGDI fusion protein was incubated with treated MDA-MB-231 cell lysates (prepared identically to Gβγ partitioning above) for 1 hr at 4° C. in a total volume of 200 μl. Glutathione-sepharose was added and the mixture rotated at 4° C. for 30 min after which the affinity matrix was pelleted and washed three times with 500 μl of incubation buffer (70 mM HEPES, pH 7.5, 2 mM EDTA, 1 mM DTT, 150 mM NaCl, 0.1% Tween, 100 μM GDP, 2 mM MgCl2). Proteins retained on the matrix were solubilized in 2× Laemmli loading buffer and separated by electrophoresis on denaturing, 4-20% polyacrylamide gels. Proteins were transferred to nitrocellulose membranes for immunoblotting with an anti-RhoA antibody (Santa Cruz, sc-179).

[5] = test system: MDA-MB-231 cells; experiment: Thrombin-induced cell rounding; assay type: cell-based; conditions: 24 h pretreatment, GGTI-DU40 5 μM, SN-DU40 and FTI 20 μM, thrombin 20 min
Description: For the experiments assessing thrombin effects on cell morphology, MDA-MB-231 cells were plated onto glass-bottom microwell dishes at 10-20% confluence and grown for 18-24 h in the presence of serum. Cells were then washed once with PBS and media replaced with serum-free media (DMEM) including indicated compounds and incubated an additional 24 h. Cells were then imaged, treated with thrombin (1 U/mL for 20 min), and imaged again.

[6] = target: T1, GGTase-I (Homo sapiens, UniProt P53609); experiment: GGTase-I enzyme assay (3H-GGPP incorporation into Ras-CVLL); assay type: biochemical, mammalian
T1 construct: made in house; host or cells: Sf9 cells
Description: (§3) FTase and GGTase-I activities were determined by following incorporation of radiolabeled isoprenoid from ^3H-FPP and ^3H-GGPP into Ras proteins as described previously (28). Briefly, purified mammalian FTase or GGTase-I (50 ng, expressed in Sf9 cells) (29, 30) were used to initiate reactions containing 0.5 μM FPP or GGPP, respectively and 1 μM of the appropriate purified His-tagged Ras substrates (H-Ras for FTase; Ras-CVLL for GGTase-I). Where indicated in the appropriate Figure legend, inhibitors were added at the indicated concentrations. Final DMSO concentration was 2% for all samples. Reactions were carried out for 10 min at 30° C. before precipitation and product determination. Kinetic assays in which GGPP concentration was varied employed 5 ng GGTase-I, and reactions were carried out for five min to prevent GGTase-I concentration from exceeding GGPP concentration.
Graphing and curve fitting were performed using Prism (GraphPad, SanDiego Calif.). Substrate-velocity curves were fit to the Michaelis-Menten equation, while double-reciprocal plots were fit using linear regression. The Ki for GGTI-DU40 was calculated using nonlinear regression and shared parameter curve fitting for all inhibitor concentrations, the velocity equation used was v=Vmax[S]/(Km(1+([I]/Ki))+[S]).

[7] = target: T2, FTase (Homo sapiens, UniProt P49356); experiment: FTase enzyme assay (3H-FPP incorporation into H-Ras); assay type: biochemical, mammalian
T2 construct: made in house; host or cells: Sf9 cells
Description: as §3

[8] = target: T3, GGTase-II (Rab geranylgeranyltransferase) (Bos taurus, UniProt Q5E9B3); experiment: GGTase-II activity assay (bovine brain cytosol, Rab5a substrate); assay type: biochemical; conditions: concentration range tested
T3 construct: bovine brain cytosol (200 μg protein) as the enzyme source; from tissue; host or cells: bovine brain cytosol
T3 sequence (Q5E9B3 1-331): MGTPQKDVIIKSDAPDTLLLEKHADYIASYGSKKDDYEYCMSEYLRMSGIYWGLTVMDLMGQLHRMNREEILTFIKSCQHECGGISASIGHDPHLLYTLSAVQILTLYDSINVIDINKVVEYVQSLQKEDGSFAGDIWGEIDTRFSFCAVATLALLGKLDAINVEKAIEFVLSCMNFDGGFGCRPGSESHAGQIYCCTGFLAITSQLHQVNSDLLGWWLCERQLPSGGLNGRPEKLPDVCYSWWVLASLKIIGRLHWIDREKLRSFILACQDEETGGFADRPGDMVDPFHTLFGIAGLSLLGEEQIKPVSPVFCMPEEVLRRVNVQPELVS
Description: GGTase-II activity was measured used bovine brain cytosol (200 μg protein) as the enzyme source and purified GST-tagged Rab5a as the protein substrate. The pGEX-Rab5a construct was a gift from Adrienne Cox (University of North Carolina). The assay was performed identically to that described above for the CaaX prenyltransferases except for the enzyme source and protein substrate and that the reaction time was increased to for 30 min.

[9] = target: T4, Icmt (Homo sapiens, UniProt O60725); experiment: Icmt assay; assay type: biochemical; conditions: concentration range tested
T4 construct: made in house; host or cells: Sf9 (membrane preparation)
Description: Icmt assays were performed as described previously (27). Briefly, reactions were performed using biotin-S-famsyl-L-cysteine (4 μM) as a substrate and ^3H-AdoMet (5 μM, 7.5 Ci/mmol) as a methyl donor. Reactions were initiated by the addition of Sf9 membranes containing recombinant human Icmt (2 μg totoal protein) in the presence and absence of inhibitors. Reactions were carried out at room temperature for 20 min, and product formation determined.

[10] = test system: Gβγ in MDA-MB-231 cells; experiment: Gβγ membrane partitioning; assay type: cell-based; conditions: 24 h
Description: MDA-MB-231 cells were grown in 10 cm dishes and treated exactly as in the thrombin cell rounding assay. Following drug treatment in serum free media, cells were harvested and lysed using ice cold hypotonic lysis buffer (70 mM HEPES pH 7.4, 2 mM EDTA, 1 mM DTT, and protease inhibitors). Following sonication, the whole cell lysate (75 μg protein) was centrifuged at 100,000×g for 45 min. Both the supernatant (S100) and pellet (P100) fractions were processed on 4-20% SDS-polyacrylamide gels and proteins transferred to nitrocellulose membranes for immunoblot analysis.

[11] = test system: MDA-MB-231 cells; experiment: Thrombin-induced calcium mobilization (Fura-2); assay type: cell-based; conditions: 5 μM, 24 h
Description: For the experiments assessing thrombin-induced calcium flux, MDA-MB-231 were plated on glass coverslips and treated similarly to that described for the thrombin rounding experiments. Calcium flux was measured 24 h after withdrawal of serum and addition of inhibitors using the calcium-sensitive dye Fura 2-AM (Molecular Probes Inc)(32). MDA-MB-231 cells were dye loaded for 1 h with 2.5 μM Fura-2 AM in Hanks balanced salt solution (HBSS, supplemented with 10 mM glucose and 0.1% BSA). After dye loading, the coverslips were placed in a temperature controlled recording chamber and superfused with Hanks solution. Cells were excited alternately at 340 and 380 nm and fluorescence emission at 510 nm was measured every four sec during the course of each experiment. After baseline recording for 2 min, thrombin (1 U/mL) was superfused into the bath chamber for 1 min (˜20 mL), followed by washout. Data is presented after baseline subtraction to show thrombin dependent calcium flux. Fluorescence measurements were acquired using a DeltaScan Illumination System (Photon Technology International (PTI), South Brunswick, N.J.) running on FELIX 1.4 software.

[12] = test system: MDA-MB-231 cells; experiment: Receptor independent cell rounding by Gα12QL expression; assay type: cell-based
Description: as §2

[13] = test system: porcine TM primary cell cultures; experiment: TM cell morphology, actin cytoskeleton and focal adhesions; assay type: cell-based; conditions: 5 to 40 μM, 6 hours, 10% serum
Description: (§4) Methods: A selective inhibitor of GGTase-I (GGTI-DU40) was tested in this study to investigate its effects on actin cytosketal integrity, cell adhesions, cell-cell junctions, myosin II phosphosphorylation, and membrane localization of Rho, Rap and G-beta/gamma in trabecular meshwork (TM) cells, using immunofluorescence detection and immunobloting analysis. The effects of GGTI-DU40 on aqueous humor outflow were determined using organ cultured, perfused anterior segments of porcine eyes.
The porcine TM primary cell cultures were treated with GGTI compounds in the presence of 10% serum for 6 hours and recorded for the changes in cell morphology (phase contrast microscope), actin cytoskeletal organization (phalloidin staining) and focal adhesions (vinculin staining).

[14] = test system: myosin light chain (MLC) phosphorylation in porcine primary TM cells; experiment: Myosin light chain phosphorylation in TM cells; assay type: cell-based; conditions: 6 hours, 10% serum
Description: as §4
Porcine primary TM cells were treated with GGTI compounds for 6 hours in the presence of 10% serum and the cell lysates were analyzed for the changes in myosin light chain (MLC) phosphorylation using phosphospecific-anti-MLC antibody.

[15] = test system: Rho, Rap and G-beta/gamma in trabecular meshwork (TM) cells; experiment: Membrane localization of Rho, Rap and G-beta/gamma in TM cells; assay type: cell-based, porcine; conditions: drug-treated TM cells
Description: as §4

[16] = test system: organ cultured anterior segments of porcine eyes; experiment: Aqueous humor outflow facility in organ cultured, perfused anterior segments; conditions: 10 μM or 25 μM, perfused for 24 to 96 hours, n=8, change from baseline facility
Description: as §4
GGTI-396586 was perfused in organ cultured anterior segments of enucleated porcine eyes at a constant flow at 37° C. Changes in aqueous humor outflow facility were determined. Values are expressed as percent change in outflow facility from baseline facility.

T4 sequence (O60725 whole entry): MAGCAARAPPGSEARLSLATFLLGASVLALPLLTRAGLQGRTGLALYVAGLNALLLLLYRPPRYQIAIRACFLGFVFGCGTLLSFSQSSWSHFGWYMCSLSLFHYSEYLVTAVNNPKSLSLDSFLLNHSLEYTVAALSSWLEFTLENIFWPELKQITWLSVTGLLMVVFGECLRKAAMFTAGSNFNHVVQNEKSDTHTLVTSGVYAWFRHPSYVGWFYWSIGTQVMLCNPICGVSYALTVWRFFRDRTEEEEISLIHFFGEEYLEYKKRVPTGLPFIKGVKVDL

## CC[C@H](C)[C@@H](CO[C@@H](Cc1ccccc1)C(=O)N[C@@H](CCS(C)(=O)=O)C(=O)OC(C)C)NC[C@@H](N)CS [L-744,832, reference compound]
[1]
  localization of Ras-CVLL: no detectable mislocalization
[2]
  localization of H-Ras: almost complete mislocalization
[3]
  level of unmodified (unprenylated) Rap1: no effect
[4]
  ability of Rho proteins to associate with RhoGDI: no effect
[5]
  thrombin-stimulated cell rounding: normal rounding

## CSCCc1c(-c2cccnc2)nn(-c2ccc(Cl)c(Cl)c2)c1OCCCC(=O)N[C@@H](Cc1ccccc1)C(N)=O [GGTI-DU40, N—[(S)-1-Carbamoyl-2-phenylethyl]-4-[2-(3,4-dichlorophenyl)-4-(2-methylsulfanylethyl)-5-pyridin-3-yl-2-H-pyrazol-3-yloxy]butyramide]
[6]
  FTase/GGTase-I selectivity ratio: > 250
[6]; GGPP fixed, Ras-CVLL varied, 2-20 nM inhibitor
  mode of inhibition with respect to the protein substrate: competitive inhibitor
[6]; Ras-CVLL fixed, GGPP varied, 2-20 nM inhibitor
  mode of inhibition with respect to GGPP: uncompetitive inhibitor
[6]; data not shown
  time-dependent inhibition of GGTase-I: no such behavior was observed
[6]; protein substrate competition data, nonlinear regression, read-out: Ki for GGTase-I inhibition
  pKi: > 9.00 and 9.11 and 9.10
[6]; purified GGTase-I
  pIC50: 8.08
[7]
  pIC50: < 5.70
[8]
  activity against GGTase-II: no detectable activity
[9]
  activity against Icmt methyltransferase: no detectable activity
[1]
  localization of Ras-CVLL: complete mislocalization
[1]; data not shown
  lowest inhibitor concentration at which Ras-CVLL mislocalization could be detected: 2 µM
[2]
  localization of H-Ras: without an effect
[3]
  level of unmodified (unprenylated) Rap1: dose dependent increase
[4]
  ability of Rho proteins to associate with RhoGDI: almost complete loss
[5]
  thrombin-stimulated cell rounding: dramatically inhibited
[10]
  membrane-associated Gβγ: partial loss
[11]
  ability of thrombin to elicit calcium mobilization: unaffected
[11]; integration of time with fluorescence
  total calcium flux versus control: no statistical difference
[12]
  rounding of cells elicited by expression of Gα12QL: blocked
[13]
  actin stress fibers and focal adhesions: reversible decreases
  changes in TM cell morphology: dose dependent
[14]
  myosin light chain phosphorylation: decreased significantly; also recorded: significantly reduced
[15]
  membrane localization of Rho, Rap and G-beta/gamma: impaired
[16]
  increase in aqueous outflow facility: 30%
